Test results from US11370770B2, “3-arylindazoles as selective MEK4 inhibitors” (priority 2019, dated 2022).

Experiments:
CDK2 = CDK2 (Homo sapiens (Human), UniProt P24941); test: KINOMEscan binding assay; conditions: percent of control
panel of 57 kinases = conditions: 10 μM; S(35) criterion
ABL2 = ABL2 (Homo sapiens (Human), UniProt P42684); test: KINOMEscan binding assay; conditions: percent of control
MEK2 = MEK2 (Homo sapiens (Human), UniProt P36507); test: MEK family profiling ADP-Glo, MEK2; format: biochemical; conditions: Erk2 substrate; 0.6 μM ATP; read-out: IC50 MEK isoform 2
IKK-ALPHA = IKK-ALPHA (Homo sapiens (Human), UniProt O15111); test: KINOMEscan binding assay; conditions: percent of control
MEK1 [1] = target: T1, MEK1 (Homo sapiens (Human), UniProt Q02750); test: MEK family profiling ADP-Glo, MEK1; format: biochemical; conditions: Erk2 substrate; 0.6 μM ATP; read-out: IC50 MEK isoform 1
TEC = TEC (Homo sapiens (Human), UniProt P42680); test: KINOMEscan binding assay; conditions: percent of control
ABL1-phophorylated = ABL1-phophorylated (Homo sapiens (Human), UniProt P00519); test: KINOMEscan binding assay; conditions: percent of control
CSML2A1 = CSML2A1 (Homo sapiens (Human), UniProt P68400); test: KINOMEscan binding assay; conditions: percent of control
PIK4CB = PIK4CB (Homo sapiens (Human), UniProt Q9UBF8); test: KINOMEscan binding assay; conditions: percent of control
PRKG1 = PRKG1 (Homo sapiens (Human), UniProt Q13976); test: KINOMEscan binding assay; conditions: percent of control
ALK(L1196M) = ALK(L1196M) (Homo sapiens (Human), UniProt Q9UM73, L1196M); test: KINOMEscan binding assay; conditions: percent of control
ICK = ICK (Homo sapiens (Human), UniProt Q9UPZ9); test: KINOMEscan binding assay; conditions: percent of control
CSNK1G1 = CSNK1G1 (Homo sapiens (Human), UniProt Q9HCP0); test: KINOMEscan binding assay; conditions: percent of control
MEK6 = MEK6 (Homo sapiens (Human), UniProt P52564); test: MEK family profiling ADP-Glo, MEK6; format: biochemical; conditions: p38α substrate; 0.6 μM ATP; read-out: IC50 MEK isoform 6
MEK5 = MEK5 (Homo sapiens (Human), UniProt Q13163); test: MEK family profiling ADP-Glo, MEK5; format: biochemical; conditions: Erk5 substrate; 0.6 μM ATP; read-out: IC50 MEK isoform 5
[2] = target: ABL1(T3151)-non-phosphorylated (Homo sapiens (Human), UniProt P00519, T315I); test: KINOMEscan binding assay; conditions: percent of control
[3] = Dynamic light scattering (compound aggregation); format: physicochemical; conditions: 20, 5 and 1 μM in buffer with and without Triton X-100
DMPK = DMPK (Homo sapiens (Human), UniProt Q09013); test: KINOMEscan binding assay; conditions: percent of control
PKN2 = PKN2 (Homo sapiens (Human), UniProt Q16513); test: KINOMEscan binding assay; conditions: percent of control
MEK1 [4] = target: T1, MEK1; test: KINOMEscan binding assay; conditions: percent of control
PC3M cells = test: Scratch wound assay; format: cell-based

T1 sequence (Q02750 whole entry, canonical isoform): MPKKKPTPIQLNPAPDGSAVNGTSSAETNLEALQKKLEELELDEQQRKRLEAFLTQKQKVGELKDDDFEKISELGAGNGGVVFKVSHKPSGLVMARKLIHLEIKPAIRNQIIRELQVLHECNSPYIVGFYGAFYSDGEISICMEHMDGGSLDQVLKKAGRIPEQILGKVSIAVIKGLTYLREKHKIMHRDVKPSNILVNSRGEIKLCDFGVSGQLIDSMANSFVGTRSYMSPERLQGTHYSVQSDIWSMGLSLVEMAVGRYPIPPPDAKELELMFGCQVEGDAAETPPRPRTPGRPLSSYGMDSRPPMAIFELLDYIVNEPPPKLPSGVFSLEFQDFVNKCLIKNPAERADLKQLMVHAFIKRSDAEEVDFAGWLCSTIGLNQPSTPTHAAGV
Sequence of MEK5 (Q13163 whole entry, canonical isoform): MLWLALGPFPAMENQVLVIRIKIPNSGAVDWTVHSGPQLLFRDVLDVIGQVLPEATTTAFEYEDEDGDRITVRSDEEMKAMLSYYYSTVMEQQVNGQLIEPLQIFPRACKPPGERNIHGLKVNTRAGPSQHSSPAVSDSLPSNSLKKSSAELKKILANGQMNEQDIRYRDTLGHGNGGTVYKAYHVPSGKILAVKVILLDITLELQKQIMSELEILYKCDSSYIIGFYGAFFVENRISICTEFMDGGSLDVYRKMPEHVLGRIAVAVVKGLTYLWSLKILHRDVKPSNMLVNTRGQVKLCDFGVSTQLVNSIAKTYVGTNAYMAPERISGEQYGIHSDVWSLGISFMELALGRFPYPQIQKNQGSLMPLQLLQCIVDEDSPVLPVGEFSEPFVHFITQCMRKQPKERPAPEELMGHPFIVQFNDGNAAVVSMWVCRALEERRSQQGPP
Sequence of MEK6 (P52564 whole entry, canonical isoform): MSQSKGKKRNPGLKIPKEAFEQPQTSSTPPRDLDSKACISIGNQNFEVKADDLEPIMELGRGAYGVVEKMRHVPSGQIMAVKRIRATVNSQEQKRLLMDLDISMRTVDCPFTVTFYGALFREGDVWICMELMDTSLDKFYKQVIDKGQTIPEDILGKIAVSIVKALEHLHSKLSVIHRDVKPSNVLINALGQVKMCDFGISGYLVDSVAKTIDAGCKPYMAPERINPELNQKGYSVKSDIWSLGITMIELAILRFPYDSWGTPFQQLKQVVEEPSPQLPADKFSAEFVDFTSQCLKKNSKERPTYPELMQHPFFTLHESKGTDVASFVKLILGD
Sequence of TEC (P42680 whole entry): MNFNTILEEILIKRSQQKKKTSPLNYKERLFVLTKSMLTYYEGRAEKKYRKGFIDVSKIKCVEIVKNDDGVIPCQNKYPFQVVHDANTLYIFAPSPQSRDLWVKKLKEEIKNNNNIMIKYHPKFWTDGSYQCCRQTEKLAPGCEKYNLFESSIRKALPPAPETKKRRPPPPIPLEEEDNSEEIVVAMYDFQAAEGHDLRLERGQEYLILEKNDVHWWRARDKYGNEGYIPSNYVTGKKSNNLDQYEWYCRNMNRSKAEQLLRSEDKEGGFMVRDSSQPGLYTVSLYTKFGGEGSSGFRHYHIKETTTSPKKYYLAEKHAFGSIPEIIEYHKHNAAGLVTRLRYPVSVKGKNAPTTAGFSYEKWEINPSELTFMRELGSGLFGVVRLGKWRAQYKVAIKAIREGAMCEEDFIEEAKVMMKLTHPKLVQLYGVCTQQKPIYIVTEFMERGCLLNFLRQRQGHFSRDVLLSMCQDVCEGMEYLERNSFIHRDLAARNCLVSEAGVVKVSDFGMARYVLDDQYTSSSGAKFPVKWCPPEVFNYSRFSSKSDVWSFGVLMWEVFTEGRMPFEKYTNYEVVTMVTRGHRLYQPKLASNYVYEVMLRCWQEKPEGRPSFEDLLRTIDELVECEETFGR
Sequence of PIK4CB (Q9UBF8 whole entry): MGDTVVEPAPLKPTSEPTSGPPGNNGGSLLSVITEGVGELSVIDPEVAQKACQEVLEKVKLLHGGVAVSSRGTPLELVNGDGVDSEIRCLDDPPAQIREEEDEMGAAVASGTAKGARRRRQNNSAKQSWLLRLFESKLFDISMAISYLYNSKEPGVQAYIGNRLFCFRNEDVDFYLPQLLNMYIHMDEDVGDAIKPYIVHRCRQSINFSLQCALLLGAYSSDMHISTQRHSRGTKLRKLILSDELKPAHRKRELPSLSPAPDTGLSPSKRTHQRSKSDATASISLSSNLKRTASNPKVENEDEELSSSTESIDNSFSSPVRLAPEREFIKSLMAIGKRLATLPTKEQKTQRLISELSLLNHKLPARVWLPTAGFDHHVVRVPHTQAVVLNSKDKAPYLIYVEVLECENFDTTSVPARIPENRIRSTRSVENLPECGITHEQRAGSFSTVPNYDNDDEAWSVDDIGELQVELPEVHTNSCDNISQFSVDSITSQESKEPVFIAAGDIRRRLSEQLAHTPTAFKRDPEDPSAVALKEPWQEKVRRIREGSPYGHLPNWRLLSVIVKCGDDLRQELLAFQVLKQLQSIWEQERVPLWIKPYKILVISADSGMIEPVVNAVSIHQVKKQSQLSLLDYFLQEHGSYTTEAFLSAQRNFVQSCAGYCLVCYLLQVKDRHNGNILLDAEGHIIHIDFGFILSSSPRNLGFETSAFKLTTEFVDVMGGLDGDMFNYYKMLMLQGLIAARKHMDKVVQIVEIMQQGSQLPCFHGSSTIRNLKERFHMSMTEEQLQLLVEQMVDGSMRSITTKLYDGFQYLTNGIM
Sequence of ICK (Q9UPZ9 whole entry): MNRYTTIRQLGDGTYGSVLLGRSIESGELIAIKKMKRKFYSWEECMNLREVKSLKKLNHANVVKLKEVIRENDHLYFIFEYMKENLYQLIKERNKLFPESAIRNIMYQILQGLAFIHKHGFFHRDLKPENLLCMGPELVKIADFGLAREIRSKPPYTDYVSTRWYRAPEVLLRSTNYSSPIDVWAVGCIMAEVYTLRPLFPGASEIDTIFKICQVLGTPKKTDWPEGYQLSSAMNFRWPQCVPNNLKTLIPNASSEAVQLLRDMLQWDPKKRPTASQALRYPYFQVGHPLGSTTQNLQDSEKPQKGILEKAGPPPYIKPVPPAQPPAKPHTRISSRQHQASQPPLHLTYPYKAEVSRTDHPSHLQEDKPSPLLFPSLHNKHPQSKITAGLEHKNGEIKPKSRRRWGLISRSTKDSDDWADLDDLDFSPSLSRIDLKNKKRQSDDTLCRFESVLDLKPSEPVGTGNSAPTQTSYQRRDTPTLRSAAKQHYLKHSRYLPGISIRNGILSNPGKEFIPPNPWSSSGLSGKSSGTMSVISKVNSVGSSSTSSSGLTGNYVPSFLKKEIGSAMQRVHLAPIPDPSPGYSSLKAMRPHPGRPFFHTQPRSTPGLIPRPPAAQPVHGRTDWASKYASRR
Sequence of DMPK (Q09013 whole entry): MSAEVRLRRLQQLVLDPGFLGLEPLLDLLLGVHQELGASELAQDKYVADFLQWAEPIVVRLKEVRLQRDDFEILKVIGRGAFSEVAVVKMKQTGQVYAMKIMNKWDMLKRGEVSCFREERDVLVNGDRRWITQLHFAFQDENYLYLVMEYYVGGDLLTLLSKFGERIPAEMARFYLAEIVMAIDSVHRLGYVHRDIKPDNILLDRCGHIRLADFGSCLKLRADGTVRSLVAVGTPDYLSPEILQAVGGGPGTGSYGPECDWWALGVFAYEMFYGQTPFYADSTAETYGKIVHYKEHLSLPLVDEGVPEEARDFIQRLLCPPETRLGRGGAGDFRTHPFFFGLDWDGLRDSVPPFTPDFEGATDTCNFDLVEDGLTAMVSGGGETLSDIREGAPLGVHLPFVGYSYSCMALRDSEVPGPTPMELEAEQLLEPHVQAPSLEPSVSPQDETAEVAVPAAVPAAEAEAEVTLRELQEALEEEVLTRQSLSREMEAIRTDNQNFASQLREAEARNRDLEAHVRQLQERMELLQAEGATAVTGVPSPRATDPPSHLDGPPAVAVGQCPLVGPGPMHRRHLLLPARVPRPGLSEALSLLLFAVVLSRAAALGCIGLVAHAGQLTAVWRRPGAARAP
Sequence of IKK-ALPHA (O15111 whole entry, canonical isoform): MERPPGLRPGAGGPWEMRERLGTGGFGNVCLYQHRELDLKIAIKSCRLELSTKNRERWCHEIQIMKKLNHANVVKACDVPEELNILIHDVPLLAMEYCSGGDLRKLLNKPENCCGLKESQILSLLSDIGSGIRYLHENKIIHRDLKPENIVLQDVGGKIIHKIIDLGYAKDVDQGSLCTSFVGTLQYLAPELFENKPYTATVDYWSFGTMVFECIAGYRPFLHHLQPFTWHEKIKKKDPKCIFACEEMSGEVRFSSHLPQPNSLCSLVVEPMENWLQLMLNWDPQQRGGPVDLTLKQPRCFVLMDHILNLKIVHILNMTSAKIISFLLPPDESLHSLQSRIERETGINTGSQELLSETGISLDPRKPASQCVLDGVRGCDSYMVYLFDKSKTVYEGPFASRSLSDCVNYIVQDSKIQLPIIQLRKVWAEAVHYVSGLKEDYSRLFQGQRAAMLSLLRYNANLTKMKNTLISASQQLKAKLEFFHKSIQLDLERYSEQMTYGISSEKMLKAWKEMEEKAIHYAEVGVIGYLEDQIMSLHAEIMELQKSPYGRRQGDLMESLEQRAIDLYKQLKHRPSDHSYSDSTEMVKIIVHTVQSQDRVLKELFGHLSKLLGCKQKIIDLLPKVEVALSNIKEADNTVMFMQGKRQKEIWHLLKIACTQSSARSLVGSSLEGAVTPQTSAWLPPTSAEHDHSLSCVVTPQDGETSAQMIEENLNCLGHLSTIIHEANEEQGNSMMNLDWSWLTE
Sequence of CSML2A1 (P68400 whole entry): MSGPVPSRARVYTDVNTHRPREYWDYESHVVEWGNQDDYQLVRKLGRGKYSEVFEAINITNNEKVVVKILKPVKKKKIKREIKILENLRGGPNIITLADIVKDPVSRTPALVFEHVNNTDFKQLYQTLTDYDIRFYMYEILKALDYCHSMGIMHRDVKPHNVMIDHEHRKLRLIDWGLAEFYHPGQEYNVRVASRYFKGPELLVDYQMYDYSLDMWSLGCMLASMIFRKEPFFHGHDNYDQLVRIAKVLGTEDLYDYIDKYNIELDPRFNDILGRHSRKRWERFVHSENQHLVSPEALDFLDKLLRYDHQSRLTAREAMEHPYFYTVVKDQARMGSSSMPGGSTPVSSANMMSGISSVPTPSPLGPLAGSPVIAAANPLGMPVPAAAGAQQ

Question: Which results are given for `O=C(O)c1cccc(-c2n[nH]c3ccccc23)c1` [Compound 6a, 3-(1H-indazol-3-yl)benzoic Acid]?
Answer: % Ctrl @ 10000 nM (CDK2): 97 % Ctrl; number of kinases hit, out of 57 tested (panel of 57 kinases): 5; % Ctrl @ 10000 nM (ABL2): 100 % Ctrl; IC50 (MEK2): > 27 µM; % Ctrl @ 10000 nM (IKK-ALPHA): 50 % Ctrl; IC50 (MEK1 [1]): 12 µM; % Ctrl @ 10000 nM (TEC): 100 % Ctrl; % Ctrl @ 10000 nM (ABL1-phophorylated): 86 % Ctrl; % Ctrl @ 10000 nM (CSML2A1): 0.75 % Ctrl; % Ctrl @ 10000 nM (PIK4CB): 0 % Ctrl; % Ctrl @ 10000 nM (PRKG1): 100 % Ctrl; % Ctrl @ 10000 nM (ALK(L1196M)): 59 % Ctrl; % Ctrl @ 10000 nM (ICK): 43 % Ctrl; % Ctrl @ 10000 nM (CSNK1G1): 80 % Ctrl; IC50 (MEK6): 10 µM; IC50 (MEK5): > 27 µM; % Ctrl @ 10000 nM [2]: 67 % Ctrl; compound aggregates by DLS [3]: under no conditions were aggregates observed; % Ctrl @ 10000 nM (DMPK): 100 % Ctrl; % Ctrl @ 10000 nM (PKN2): 100 % Ctrl

Question: For `O=C(O)c1ccc(-c2n[nH]c3cc(F)ccc23)cc1` [Compound 6ff, 4-(6-fluoro-2H-indazol-3-yl)benzoic Acid], which “% Ctrl @ 10000 nM” value (CDK2) is on record?
Answer: 100 % Ctrl

Question: What about the “number of kinases hit, out of 57 tested” value (panel of 57 kinases) of the same compound?
Answer: 12

Question: And the “% Ctrl @ 10000 nM” value (MEK1 [4])?
Answer: 49 % Ctrl

Question: What about the “% Ctrl @ 10000 nM” value (ABL2) of the same compound?
Answer: 100 % Ctrl

Question: And the IC50 (MEK2)?
Answer: > 27 µM

Question: And the “% Ctrl @ 10000 nM” value (IKK-ALPHA)?
Answer: 14 % Ctrl

Question: And the IC50 (MEK1 [1])?
Answer: 15 µM

Question: What about the “% Ctrl @ 10000 nM” value (TEC) of the same compound?
Answer: 100 % Ctrl

Question: What about the “% Ctrl @ 10000 nM” value (ABL1-phophorylated) of the same compound?
Answer: 73 % Ctrl

Question: And the “% Ctrl @ 10000 nM” value (CSML2A1)?
Answer: 0 % Ctrl

Question: What about the “% Ctrl @ 10000 nM” value (PIK4CB) of the same compound?
Answer: 28 % Ctrl

Question: What about the “% Ctrl @ 10000 nM” value (PRKG1) of the same compound?
Answer: 100 % Ctrl

Question: What about the “% Ctrl @ 10000 nM” value (ALK(L1196M)) of the same compound?
Answer: 61 % Ctrl

Question: And the “% Ctrl @ 10000 nM” value (ICK)?
Answer: 26 % Ctrl

Question: And the “efficacy in wound scratch assay” value (PC3M cells; 10 μM)?
Answer: no efficacy

Question: What about the “efficacy in wound scratch assay” value (PC3M cells; 25 μM) of the same compound?
Answer: no efficacy

Question: And the “Percent Difference, DMSO vs. 10 uM inhibitor” value (PC3M cells; PC3M cells, 10 μM, wound gap 0 vs 20 hrs)?
Answer: −1.65%

Question: What about the “Percent Difference, DMSO vs. 25 uM inhibitor” value (PC3M cells; PC3M cells, 25 μM, wound gap 0 vs 20 hrs) of the same compound?
Answer: −0.16%

Question: What about the “% Ctrl @ 10000 nM” value (CSNK1G1) of the same compound?
Answer: 90 % Ctrl

Question: What about the IC50 (MEK6) of the same compound?
Answer: 11 µM

Question: What about the IC50 (MEK5) of the same compound?
Answer: > 27 µM

Question: What about the “% Ctrl @ 10000 nM” value [2] of the same compound?
Answer: 15 % Ctrl

Question: What about the “% Ctrl @ 10000 nM” value (DMPK) of the same compound?
Answer: 100 % Ctrl

Question: What about the “% Ctrl @ 10000 nM” value (PKN2) of the same compound?
Answer: 95 % Ctrl
